Where two headings read alike, the source gives them in different places.
Key:
[1] = biological target: T1, VHL (VBC complex: pVHL54-213, eloB1-104, eloC17-112) (Homo sapiens, UniProt P40337); assay: Surface plasmon resonance (SPR) steady-state binding to immobilised biotinylated AviVBC; parameters: key to K D, SPR (footnote symbol instead of value): ^c: High responses in the SPR experiments, promiscuous or unspecific binders
T1 construct: equimolar complex of pVHL54-213, eloB1-104 and; made in house; host or cells: E. coli
T1 sequence (P40337 54-213): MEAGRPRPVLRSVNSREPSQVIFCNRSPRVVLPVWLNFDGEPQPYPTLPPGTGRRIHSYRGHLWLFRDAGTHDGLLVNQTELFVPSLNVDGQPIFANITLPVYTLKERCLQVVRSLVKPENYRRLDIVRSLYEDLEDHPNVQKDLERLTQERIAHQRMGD
T1 sequence (Q15370 1-104 partner limits assumed): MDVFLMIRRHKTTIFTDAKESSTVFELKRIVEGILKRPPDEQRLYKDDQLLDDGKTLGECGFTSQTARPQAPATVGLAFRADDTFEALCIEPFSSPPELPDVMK
T1 sequence (Q15369 17-112 partner limits assumed): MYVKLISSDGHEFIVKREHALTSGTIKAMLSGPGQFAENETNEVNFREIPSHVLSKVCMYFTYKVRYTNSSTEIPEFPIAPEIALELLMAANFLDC
Method: The KD of each compound to VHL was determined by surface plasmon resonance (SPR) experiments.
3. Protein expression, purification and biotinylation
The VHL E3 ligase is a multi-protein complex composed of five proteins: VHL protein (pVHL), elongin B (eloB), elongin C (eloC), Cullin-2 (Cul2) and Ring-box protein 1 (Rbx1).[3] Since the compounds developed in this work bind solely to the VHL protein, the VBC complex (equimolar complex of pVHL54-213, eloB1-104 and eloC17-112) was used in all experiments, as it can be readily expressed in E. coli with high yields,[4] while the full E3 ligase would require baculovirus-insect cells expression system.[5] The expression and purification of VBC was performed as described previously by our group[2] and employed directly in all NMR experiments.
For the surface plasmon resonance (SPR) experiments, a VBC complex containing an AviTagTM in the N-terminus of eloB (AviVBC) was purified using the same procedure described for VBC. The modified eloB/eloC expression plasmid was previously developed in-house by Dr. Michael Roy and kindly shared. The AviVBC complex was site-specifically biotinylated in the AviTag using the GST-BirA method previously described by […]
4. Surface plasmon resonance experiments
The SPR experiments were performed with a Biacore T200 instrument (GE Healthcare). All measurements were performed at 20 °C with buffer containing 10 mM HEPES, pH 7.5, 150 mM NaCl, 1 mM TCEP, 0.005% (v/v) Tween® 20 and 2% (v/v) dimethyl sulfoxide (DMSO). Biotinylated AviVBC (~0.5 μM) was immobilised at 22 °C onto a Series S sensor chip SA (GE Heathcare) to levels of approximately 3500-4000 response units […]
Solutions of each spy molecule were prepared in buffer at concentrations based on previous structure-activity relationship studies of VHL ligands (K D expected in the nanomolar range for structures like spy molecules 16 and 22, or in the milimolar range for spy molecules similar to 1 and 9). From this first screen, the binding affinities were roughly estimated using the Biacore T200 evaluation software (GE Healthcare), then measurements were repeated using concentrations above and below the KD obtained in the first round to generate better curves for fitting the data accurately. Contact and dissociation times varied across the different compounds tested, but in […]
dissociated from the surface in less than sixty seconds.
Data analysis was performed using the steady state responses of the double-referenced sensorgrams (raw data subtracted from blank and reference surface injections) obtained for each concentration tested. These responses were plotted against the respective concentrations and the data fitted to a 1: 1 binding model u sing the Biacore T200 evaluation software and the following equation: […]
Where Req is the steady-state response at a given concentration C. Deviations in Req were corrected by adding an ‘offset’ term to the equation. KD is the dissociation constant to be determined and RMAX is the maximum response expected for a given compound according to the equation below:
Where n is the stoichiometry of the interaction ( in this case, n = 1) and RProtein is the immobilization level of protein. MWCompound and MWProtein are the molecular weights of compound and protein, respectively. Sensorgrams and fitting parameters for all spy molecules can be found in section 7.

[2] = biological target: T2, VHL (VBC complex) (Homo sapiens, UniProt P40337); assay: 19F CPMG NMR transverse relaxation rate (R2) and R2 contrast (C2) of spy molecule with and without protein; assay type: binding; conditions: for R2 contrast – C2: supplement 8.1
T2 construct: equimolar complex of pVHL54-213, eloB1-104 and; made in house; host or cells: E. coli
T2 sequence (P40337 54-213): as the sequence (P40337 54-213) above
T2 sequence (Q15370 1-104 partner limits assumed): as the sequence (Q15370 1-104 partner limits assumed) above
T2 sequence (Q15369 17-112 partner limits assumed): as the sequence (Q15369 17-112 partner limits assumed) above
Text: Due to the large CSA of fluorine and the significant differences in the fluorine isotropic chemical shift (δF) between the free and bound states, the transverse relaxation rate (R2) is a well-established sensitive parameter to detect ligand binding.[4] Therefore, fluorine NMR experiments including a Carr–Purcell–Meiboom–Gill (CPMG) spin-echo filter[10] before acquisition were employed to monitor ligand binding to VHL by measuring peak intensity, as changes in other NMR parameters, such as chemical shift and peak width, were not as significant. The R2 values of the CF3 peak of each compound in the absence and in the presence of protein were determined by performing multiple ^19F CPMG experiments varying the CPMG filter (Fig. 2a). To quantify the shift in R2 upon binding, the R2 contrast (C2)[11] was determined. Ideally, a good spy molecule should have a large increase in R2 (fast relaxation) when protein is present, resulting in a large assay window for the competition experiments (Fig. 2b).
5. Measurement of the transverse relaxation rates by 19F CPMG NMR
All the NMR experiments were performed in a 500 MHz Bruker AVANCE N MR spectrometer equipped with a CPQCI -F cryoprobe. To measure the transverse relaxation rates (R 2), a solution of each spy molecule at 100 μM was prepared in 50 mM potassium phosphate monobasic (KH2PO4), pH 7.5, 100 mM NaCl, 1 mM TCEP, 2% (v/v) DMSO, 20% D2O and 10 µM trifluoroacetic acid (TFA). For each solution, 19F CPMG experiments […]
Due to the fast relaxation of molecules 21 and 22, these experiments were repeated with shorter CPMG filters (50, 100, 150, 200, 300, 400, 700 and 1000 ms). The fluorine peaks were integrated and plotted against the resp ective CPMG filters. The R 2 relaxation rates were obtained from fitting the data as a n exponential decay (GraphPad Prism 6) according to the equation below: [7]
Where I(t) is the 19F signal intensity or integral, t is the total CPMG filter in seconds, I(0) is the signal intensity when t = 0. To obtain the R2 upon addition of prot ein, all the experiments above were repeated in presence of VBC at 1 µM. Experiments were performed as triplicates and the R 2 contrasts (C2) were obtained according to the equation below: [8]
Where R2Free is the R2 obtained for the spy molecule free in solution and R2Observed is the R2 obtained with the spy molecule in presence of VBC. The raw data, fitting, R2 and C2 values for each spy molecule can be found in section 8.1. For the R2 measurements using molecule 19 at varied concentrations of spy molecule and protein, see section 8.2 . For the R2 measurements using spy molecules 6 and 11 (used to generate figures S 2, S3 and S4) see

[3] = biological target: T2, VHL (VBC complex); assay: as above; assay type: binding; conditions: for R2 contrast – C2: section 8.3: spy molecules at 50 μM, VBC 1 μM
[4] = SPR, 20 °C, steady-state 1:1 fit, footnote b values fitted because RMAX was not reached experimentally, read-out: K D, SPR
[5] = SPR, responses too low, data could not be fitted, read-out: KD
[6] = Spy molecule 100 μM, no protein
[7] = SPR steady-state fit, supplement section 7, read-out: KD (Biacore T200 fit)
[8] = section 8.3: spy molecules at 50 μM in absence of VBC (sub-head prints Spy molecule 100 μM)
[9] = section 8.3: spy molecules at 50 μM in presence of VBC 1 μM (sub-head prints 100 μM)
[10] = SPR fit with very large error or RMAX above theoretical, unspecific / promiscuous binding suspected, read-out: KD (Biacore T200 fit, judged unreliable)

Row | Compound | Kd [1, 4] [µM] | Kd [1, 5] [µM] | R2 ([2]; Spy molecule 100 μM + VBC 1 μM) [s⁻¹] | R2 contrast – C2 ([2]; Spy molecule 100 μM + VBC 1 μM) [%] | R2 [2, 6] [s⁻¹] | Kd [1, 7] [µM] | R2 [3, 8] [s⁻¹] | R2 [3, 9] [s⁻¹] | R2 contrast – C2 [3] [%] | K D, SPR (footnote symbol instead of value) ([1]; SPR) | Kd [1, 10] [µM] | SPR binding behaviour ([1]; SPR, supplement section 7) | binding kinetics / dissociation rates by SPR ([1]; SPR)
1 | O=C(NCc1ccc(Br)c(C(F)(F)F)c1)[C@@H]1C[C@@H](O)CN1 [Compound 1] | > 1500 | > 1000 | 1.115 ± 0.020 | 4.1 ± 3.1 | 1.069 ± 0.028 |  |  |  |  |  |  |  | 
2 | CC(=O)N1C[C@H](O)C[C@H]1C(=O)NCc1ccc(Br)c(C(F)(F)F)c1 [Compound 2] | 657 ± 49 |  | 1.251 ± 0.021 | 6.5 ± 2.2 | 1.170 ± 0.019 | 657 |  |  |  |  |  |  | 
3 | CC(=O)NC(C(=O)N1CC(O)CC1C(=O)NCc1ccc(Br)c(C(F)(F)F)c1)C(C)(C)C (stereo not drawn) [Compound 4] | 4.39 ± 0.12 |  | 1.924 ± 0.037 | 38.9 ± 2.5 | 1.175 ± 0.027 | 4.39 |  |  |  |  |  |  | 
4 | Cc1ncsc1-c1ccc(CNC(=O)[C@@H]2C[C@@H](O)CN2)cc1C(F)(F)F [Compound 5] | > 1500 | > 1000 | 0.936 ± 0.011 | 2.2 ± 1.8 | 0.915 ± 0.012 |  |  |  |  |  |  |  | 
5 | CC(=O)N1C[C@H](O)C[C@H]1C(=O)NCc1ccc(-c2scnc2C)c(C(F)(F)F)c1 [Compound 6] | 878 ± 98 |  | 1.760 ± 0.039 | 37.7 ± 2.6 | 1.096 ± 0.020 | 878 | 1.255 ± 0.043 | 1.951 ± 0.062 | 35.7 ± 4.0 |  |  |  | 
6 | Cc1ncsc1-c1ccc(CNC(=O)[C@@H]2C[C@@H](O)CN2C(=O)CC(C)(C)C)cc1C(F)(F)F [Compound 7] | 67.1 ± 14 |  | 3.614 ± 0.088 | 62.1 ± 3.0 | 1.368 ± 0.033 | 67.1 |  |  |  |  |  |  | 
7 | CC(=O)NC(C(=O)N1CC(O)CC1C(=O)NCc1ccc(-c2scnc2C)c(C(F)(F)F)c1)C(C)(C)C (stereo not drawn) [Compound 8] | 2.99 ± 0.75 |  | 1.639 ± 0.022 | 17.7 ± 2.2 | 1.349 ± 0.027 | 2.99 |  |  |  |  |  |  | 
8 | O=C(NCc1ccc(Br)cc1C(F)(F)F)[C@@H]1C[C@@H](O)CN1 [Compound 9] | > 1500 | > 1000 | 1.279 ± 0.022 | 0.9 ± 2.7 | 1.268 ± 0.026 |  |  |  |  |  |  |  | 
9 | CC(C)(C)CC(=O)N1C[C@H](O)C[C@H]1C(=O)NCc1ccc(Br)cc1C(F)(F)F [Compound 11] | 110 ± 9 |  | 2.740 ± 0.096 | 47.9 ± 4.1 | 1.427 ± 0.033 | 110 | 1.534 ± 0.071 | 3.122 ± 0.145 | 50.9 ± 5.7 |  |  |  | 
10 | Cc1ncsc1-c1ccc(CNC(=O)[C@@H]2C[C@@H](O)CN2)c(C(F)(F)F)c1 [Compound 13] |  |  | 1.609 ± 0.017 | 3.2 ± 2.0 | 1.558 ± 0.028 |  |  |  |  | ^c | 2530 | unspecific / promiscuous binding to the protein surface | 
11 | CC(=O)N1C[C@H](O)C[C@H]1C(=O)NCc1ccc(-c2scnc2C)cc1C(F)(F)F [Compound 14] |  |  | 3.425 ± 0.073 | 53.9 ± 2.5 | 1.579 ± 0.022 |  |  |  |  | ^c | 223 | bind unspecifically / promiscuously to the protein surface | 
12 | Cc1ncsc1-c1ccc(CNC(=O)[C@@H]2C[C@@H](O)CN2C(=O)CC(C)(C)C)c(C(F)(F)F)c1 [Compound 15] | 35.2 ± 7 |  | 2.634 ± 0.058 | 41.3 ± 2.7 | 1.545 ± 0.035 | 35.2 |  |  |  |  |  |  | 
13 | CC(=O)NC(C(=O)N1CC(O)CC1C(=O)NCc1ccc(-c2scnc2C)cc1C(F)(F)F)C(C)(C)C (stereo not drawn) [Compound 16] | 0.268 ± 0.03 |  | 1.828 ± 0.031 | 1.3 ± 2.4 | 1.805 ± 0.032 | 0.268 |  |  |  |  |  |  | too high to be determined accurately
14 | O=C(NCc1ccc(Br)cc1)C1CC(O)CN1C(=O)C(F)(F)F (stereo not drawn) [Compound 17] | 645 ± 100 |  | 3.189 ± 0.066 | 62.0 ± 2.6 | 1.213 ± 0.028 |  |  |  |  |  |  |  | 
15 | CC(C)(C)C(NC(=O)C(F)(F)F)C(=O)N1CC(O)CC1C(=O)NCc1ccc(Br)cc1 (stereo not drawn) [Compound 21] | 0.447 ± 0.085 |  | 4.109 ± 0.247 | 3.7 ± 8.8 | 3.959 ± 0.262 | 0.447 |  |  |  |  |  |  | too high to be determined accurately

— article PMC6369734, “Spy vs. spy: selecting the best reporter for ^19F NMR competition experiments” (Chemical Communications (Cambridge, England), 2019)
